Source: patent US20190365788A1, “CYCLIC PHOSPHATE SUBSTITUTED NUCLEOSIDE DERIVATIVES FOR THE TREATMENT OF LIVER DISEASES” (priority 2016, published 2019)
Read-outs that look alike come from different tables or passages of the source.

Columns and labels:
HepG2 cells = test: In vitro inhibition of HepG2 cells (MTT proliferation assay); format: cell-based; conditions: 72 h incubation, absorbance 570 nm, read-out: HepG2: Relative IC50
Procedure: (§1) The compounds of the invention were tested in cell based in vitro assays comprising HuH-1 cells and HepG2 cells, as in vitro models for potential hepatocellular carcinoma activity.
(§2) HuH-1 cells were purchased from JCRB, HepG2 cells from ATCC, and both tested with the following method:
(§3) Cells are suspended at a specific density in a specific culture medium. Then, 100 μl of cell suspension are plated per well in 96-well plates.
(§4) Compounds or negative controls (DMSO) are added to the cells (100 μl of a compound solution in its specific medium with a final concentration of 0.15% DMSO). Each compound concentration is tested in duplicate (6 concentrations per compound). Cells are incubated at 37° C. for 72 h without treating again.
(§5) SDS is added to control wells (final concentration of 1%) and kept for 15 min at 37° C. SDS 1% represents the positive control of proliferation inhibition. Cell supernatant is removed and 100 μl of a MTT (3-[4.5-dimethylthiazol-2-yl]-2.5-diphenyltetrazolium bromide) solution in fresh medium are added per well (MTT final concentration of 0.5 mg/ml) and incubated for 4 h at 37° C. MTT reaction is stopped and homogenized by adding 100 μl/well of SDS 10%, 0.01M HCl and incubated for 2 h at 37° C. Absorbance is measured at 570 nm.

Human Hepatocytes = test: In vitro conversion of prodrug to nucleoside triphosphate (NTP) in human hepatocytes; format: in vitro ADME; conditions: 1 hour at 10 μM prodrug, intracellular NTP
Procedure: The degree of conversion of a prodrug compound of the present invention to its corresponding nucleoside triphosphate (NTP) can be measured in vitro using the procedure described below.
A 2 mM stock solution of the prodrug test compound is prepared in 5% DMSO/95% MeOH to provide a final sample concentration of […]. A 5 μL aliquot is removed from this stock solution and added to 1 mL of either a rat or human cryopreserved hepatocyte sample to provide a control sample at concentration of 1 million cells/mL. This sample is assayed in triplicate and used as a test sample.
Human and rat hepatocytes are removed from liquid nitrogen storage and thawed by submerging the hepatocyte tube into a pre-heated 37° C. waterbath and gently shaking the tube back & forth until thawed. The thawed hepatocytes are then gently poured into a container of Hepatocyte Basal Medium (50 mL, pre-warmed to 37° C.) and washed. The hepatocyte tube is then rinsed out with pre-warmed Hepatocyte Basal Medium and the washed hepatocytes and rinse are combined and centrifuged at 500 rpm for 4 minutes at room temperature. The supernatant is then discarded and the resulting hepatocyte pellet is resuspended with Hepatocyte Basal Medium (pre-warmed to 37° C.) and the final hepatocyte concentration is adjusted to 1 million cells/mL to provide the final hepatocyte suspension.
A 1 mL aliquot is removed from the 1 million cells/mL final hepatocyte suspension, analyzed in triplicate and placed into 20 mL scintillation vial without a cap. 2 mM of the prodrug test sample is then added into the hepatocyte suspension to provide a 10 μM final concentration in the 1 mL hepatocyte sample. […]
The incubated hepatocyte suspension samples are transferred to a microcentrifuge tube using a transfer pipette and centrifuged at 500 rpm for 4 minutes at room temperature. […] The resulting extract solution is then stored in a refrigerator at 4° C. until ready for use, at which point the sample is first subjected to vortexing/sonication to ensure that all hepatocyte cells have burst. […]

HuH-1 cells = test: In vitro inhibition of HuH-1 cells (MTT proliferation assay); format: cell-based; conditions: 72 h incubation, absorbance 570 nm, read-out: HuH-1: Relative IC50
Procedure: as §1, §2, §3, §4, §5

With `CC(C)OC(=O)[C@H](C)CCOP1(=O)OC[C@H]2S[C@@H](n3ccc(N)nc3=O)[C@@H](F)[C@@H]2O1` (single isomer, unassigned) [Compound 2 Diastereoisomer 2] the IC50 (HepG2 cells; Homo sapiens) was 0.5 to 5 µM, the “Human Hepatocyte 1 hour at 10 μM, NTP” value (Human Hepatocytes) was “A (A=<0.5 μM)” and the IC50 (HuH-1 cells) was less than 0.5 µM.

In the case of `CC(C)OC(=O)[C@H](C)CCOP1(=O)OC[C@H]2O[C@@H](n3ccc(NC(=O)c4ccccc4)nc3=O)C(F)(F)[C@@H]2O1` (stereo partly drawn) [Compound 10, Isopropyl (2R)-4-(((4aR,6R,7aR)-6-(4-benzamido-2-oxopyrimidin-1(2H)-yl)-7,7-difluoro-2-oxidotetrahydro-4H-furo[3,2-d][1,3,2]dioxaphosphinin-2-yl)oxy)-2-methylbutanoate], the “Human Hepatocyte 1 hour at 10 μM, NTP” value (Human Hepatocytes) is reported as “C (C=≥1 μM)”.

`CC(C)OC(=O)[C@H](C)CCOP1(=O)OC[C@H]2S[C@@H](n3ccc(N)nc3=O)[C@@H](F)[C@@H]2O1` (single isomer, unassigned) [Compound 2 Diastereoisomer 1] showed an IC50 (HuH-1 cells; Homo sapiens) of less than 0.5 µM.

Work on `CCOC(=O)[C@H](C)CCOP1(=O)OC[C@H]2S[C@@H](n3ccc(N)nc3=O)[C@@H](F)[C@@H]2O1` (single isomer, unassigned) [Compound 1 Diastereoisomer 1] yielded an IC50 (HuH-1 cells; Homo sapiens) of less than 0.5 µM.

`CC(C)OC(=O)C(C)CCOP1(=O)OC[C@H]2O[C@@H](n3cc(C(F)(F)F)c(=O)[nH]c3=O)C[C@@H]2O1` (mixture of isomers) [Mixture 6A/6B, Isopropyl 4-(((2S,4aR,6R,7aS)-6-(2,4-dioxo-5-(trifluoromethyl)-3,4-dihydropyrimidin-1 (2H)-yl)-2-oxidotetrahydro-4H-furo[3,2-d][1,3,2]dioxaphosphinin-2-yl)oxy)-2-methylbutanoate and Isopropyl 4-(((2R,4aR,6R,7aS)-6-(2,4-dioxo-5-(trifluoromethyl)-3,4-dihydropyrimidin-1 (2H)-yl)-2-oxidotetrahydro-4H-furo[3,2-d][1,3,2]dioxaphosphinin-2-yl)oxy)-2-methylbutanoate] gave an IC50 (HepG2 cells; Homo sapiens) of no less than 5 µM and an IC50 (HuH-1 cells; Homo sapiens) of no less than 5 µM.

For `CCOC(=O)[C@H](C)CCOP1(=O)OC[C@H]2S[C@@H](n3ccc(N)nc3=O)[C@@H](F)[C@@H]2O1` (single isomer, unassigned) [Compound 1 Diastereoisomer 2], the “Human Hepatocyte 1 hour at 10 μM, NTP” value (Human Hepatocytes) was “A (A=<0.5 μM)”.

`COc1nc(N)nc2c1ncn2[C@@H]1O[C@@H]2COP(=O)(OCC[C@@H](C)C(=O)OC(C)C)O[C@H]2[C@@H]1O` (mixture of isomers) [Mixture 5A/5B, Isopropyl (R)-4-(((2S,4aR,6R,7S,7aS)-6-(2-amino-6-methoxy-9H-purin-9-yl)-7-hydroxy-2-oxidotetrahydro-4H-furo[3,2-d][1,3,2]dioxaphosphinin-2-yl)oxy)-2-methylbutanoate and Isopropyl (R)-4-(((2R,4aR,6R,7S,7aS)-6-(2-amino-6-methoxy-9H-purin-9-yl)-7-hydroxy-2-oxidotetrahydro-4H-furo[3,2-d][1,3,2]dioxaphosphinin-2-yl)oxy)-2-methylbutanoate] was tested, and the IC50 (HepG2 cells; Homo sapiens) was no less than 5 µM and the IC50 (HuH-1 cells; Homo sapiens) was no less than 5 µM.

In the case of `CC(C)OC(=O)[C@@H](C)CCO[P@@]1(=O)OC[C@H]2O[C@@H](n3cnc4c(N)nc(Cl)nc43)C[C@@H]2O1.CC(C)OC(=O)[C@@H](C)CCO[P@]1(=O)OC[C@H]2O[C@@H](n3cnc4c(N)nc(Cl)nc43)C[C@@H]2O1` (single isomer, unassigned; diastereoisomer 1) [Compound 3 Diastereoisomer 1], the IC50 (HepG2 cells) is reported as less than 0.5 µM and the IC50 (HuH-1 cells) is reported as 0.5 to 5 µM.
